Source: patent US10085955B2, “Methods and compositions for treatment of demyelinating diseases” (Pathologica LLC, priority 2013, dated 2018)

Tests used:
[1] = Multi-dose rat pharmacokinetic and tolerability study; type: in vivo, Sprague Dawley rats; settings: for AUC0-12 / AUC0-24 / Cmax / Tmax: PO twice daily; for fold increase in mean AUCall compared to Study Day 1: repeat twice-daily PO
Experimental: The purpose of this study was to determine the pharmacokinetic (PK) properties and tolerability of MGBG in rats. Additionally, recovery from any toxic effects was assessed after a seven day non-dosing period.
Three per group of male Sprague Dawley (CD® IGS, Charles River) aged 7-9 weeks and weighing 222.7-252.0 g were administered by oral (PO) gavage, twice daily, at 10, 20, or 30 mg/kg/dose (20, 40, or 60 mg/kg/day) for seven consecutive days. A washout period of seven days followed. Collection of approximately 200 μL of whole blood was collected from the tail vein of all animals in Groups 5, 6, and 7 were bled at six (Day 1), seven (Day 7), or one (Days 9 through 15) time point(s), respectively. Whole blood samples were collected in a lithium heparin microtainer and processed to plasma by centrifugation. Plasma was frozen at −70° C. Pharmacokinetic analyses were performed on the individual animal plasma concentration versus time data for MGBG using WinNonlin (linear trapezoidal rule for AUC calculations). Nominal dose values and sampling times were used for calculations. For Study Day 7, the reported values for MGBG concentrations at time zero were used in the calculations of AUC. Study Day 1 disposition parameters were not reported due to insufficient terminal phase data to adequately characterize these parameters.

[2] = tested on: collagen-induced arthritis (CIA) model; assay: Murine collagen-induced arthritis; type: in vivo, DBA/1 mice; settings: mice, 25 mg/kg PO BID
Source text: The collagen-induced arthritis (CIA) model is considered a suitable model for studying potential drugs active in human arthritis because of the many immunological and pathological similarities to human rheumatoid arthritis (RA), the involvement of localized major histocompatibility, […] class-II-restricted T helper lymphocyte activation, and the similarity of histological lesions. See, e.g., Rosloniec E F et al., “Collagen-Induced Arthritis,” Current Protocols in Immunology, Unit 15.5 (1993). See also the model using a monoclonal antibody to CD18 and VLA-4 integrins described in Issekutz, A. C. et al., Immunology (1996) 88:569. […]
Data. […] Edema is measured on days 18-20, 22-27, and 29-34. Inflammation is assessed by infiltration of inflammatory cells and edema. Post-euthanasia, terminal blood draws are collected, heparinized, and frozen at −70° C. until analyzed for cytokines such as osteopontin, TNFalpha, IL-1, CRP, MCP1, MIP-lbeta, RANTES, IFNgamma, TGFbeta, IP-10, IL-17, and MMP9. […] Bone resorption is quantified by presence of osteoclasts, defects in or loss of medullary trabecular or cortical bone. Cartilage damage is assessed by examining the severity and spread of chondrocyte loss and collagen disruption. […]
Statistical Analysis. Clinical data for paw scores (means for animal) are analyzed by determining the area under the dosing curve (AUC) for days 1-15. […]

In the case of `CC(/C=N/NC(=N)N)=N\NC(=N)N` [MGBG, 1,1′ [methylethanediylidene]dinitrilodiguanidine], the “hematology differences versus control group” value ([1]; 60 mg/kg/day dose group, not thought to be adverse) is reported as “lower reticulocyte count and percentage”, the “gross or microscopic lesions at terminal sacrifice” value ([1]; PO twice daily 7 days, 20-60 mg/kg/day) is reported as “No gross or microscopic lesions” and the AUC0-12 ([1]; 20 mg/kg/day, Day 7) is reported as 1030 ng·h/mL. For the same compound, the AUC0-24 ([1]; 20 mg/kg/day, Day 7) was 2190 ng·h/mL, the Cmax ([1]; 20 mg/kg/day, Day 7) was 117 ng/mL and the Tmax ([1]; 20 mg/kg/day, Day 7) was 14 h. The AUC0-12 ([1]; 40 mg/kg/day, Day 7) was 1800 ng·h/mL, the AUC0-24 ([1]; 40 mg/kg/day, Day 7) was 3690 ng·h/mL and the Cmax ([1]; 40 mg/kg/day, Day 7) was 194 ng/mL. The Tmax ([1]; 40 mg/kg/day, Day 7) was 9.33 h, the Tmax ([1]; 60 mg/kg/day, Day 1) was 3.33 h and the AUC0-12 ([1]; 60 mg/kg/day, Day 7) was 3130 ng·h/mL. It also gave an AUC0-24 ([1]; 60 mg/kg/day, Day 7) of 6040 ng·h/mL, a Cmax ([1]; 60 mg/kg/day, Day 7) of 337 ng/mL and a Tmax ([1]; 60 mg/kg/day, Day 7) of 7.33 h. The “fold increase in mean AUCall compared to Study Day 1” value (“fold increase in mean AUCall” below) ([1]; 20 mg/kg/day) was 3.77 fold, the “fold increase in mean AUCall” value ([1]; 40 mg/kg/day) was 4.03 fold and the “fold increase in mean AUCall” value ([1]; 60 mg/kg/day) was 3.68 fold. For the same compound, the “early phase of paw swelling/inflammation” value [2] was “did affect the early phase of paw swelling/inflammation” and the “efficacy as a disease-modifying anti-rheumatic drug (DMARD)” value [2] was “not efficacious”.
